≈ marks a conversion by molar mass, not a printed value. Where two headings read alike, the source gives them in different places.
How the values were obtained:
[1] = system: A549 (lung cancer cell line); assay: MTT cytotoxicity assay, A549; assay type: cell-based, human; conditions: 24 hr
From the text: (§1) MTT assay is used to test the cytotoxic effect of BS-AE, BS-ME, BS-HE, BS-CE and BS-WE on human lung cancer cell line A549. […] According to the extraction process “BS-AE→BS-MWE→BS-CE” all of the crude extracts contain tumor inhibitory components. In order to further isolate the tumor inhibitory components from Bupleurum scorzonerifolium extract, a “Chromatography” step is further employed to isolate the BS-CE.
(§2) It is known from the experimental result of this invention, BS-AE containing the γ-butyrolactone compound and pharmaceutical composition thereof have significant growth inhibitory effect on human hepatoma, lung cancer, ovarian cancer, breast cancer, malignant glioblastoma and colorectal carcinoma cells.

[2] = system: Hep G2 (Hepatocellular carcinoma); assay: MTT cytotoxicity assay, Hep G2; assay type: cell-based; conditions: Homo sapiens, HepG2, read-out: IC 50, HepG2; heading: IC 50, HepG2; 24 hr
From the text: as §1, §2

[3] = system: DBTRG-05MG (glioblastoma multiforme); assay: MTT cytotoxicity assay, DBTRG-05MG; assay type: cell-based; conditions: Homo sapiens, read-out: IC 50, DBTRG-05MG, 24 hr
From the text: as §1, §2

[4] = system: p21 and p53; assay: Western blotting of p21 and p53, A549; assay type: cell-based, human
From the text: FIG. 5 is a western blot analysis diagram showing the amount of tumor suppressors: p21 and p53 expressed in A 549 cells either untreated (B), treated with DMSO (D) or BS-AE, BS-ME, BS-WE, isochaihulactone (BS-1), or chaihulactone (BS-2) for 1 day (1D) or 3 days (3D);

[5] = system: telomerase; assay: Inhibition of telomerase activity in Paclitaxel-resistant tumor cells; assay type: cell-based, human; conditions: Paclitaxel-resistant tumor cells (A549-T12)
From the text: Furthermore, after crude Bupleurum scorzonerifolium is processed according to the above-mentioned manufacturing method, its tumor inhibitory effect is more prominent.

[6] = system: A549-T12 cells; assay: Annexin V-FLOUS/PI flow cytometry (apoptosis), A549-T12; assay type: cell-based, human; conditions: A549-T12, 8 μg/ml, 48 hours; untreated 6.8%
From the text: FIGS. 9A through to 9D are cytograms showing the extent of cell apoptosis detected using flow cytometry for Paclitaxel-resistant human lung cancer cell lines (A549-T12 cells) either untreated, treated with BS-AE, isochalihulactone (BS-8), or isokaerophyllin ([…] fluorescence intensity of tumor cells bound with Annexin V-FLOUS antibodies; and Y-axis indicates fluorescence intensity of tumor cells bound with PI antibodies);
The following embodiments are described with Paclitaxel-resistant tumor cell A549-T12 (passage cultured from lung cancer cell line A549 cells with low concentration of Paclitaxel) as an example to test the effect of BS-AE and its pure compounds BS-8 and BS-15 (these represent isochaihulactone and chaihulactone analogues) on A549-T12 cells. Flow cytometry, drug toxicity test, and histological sections are adopted to evaluate cytotoxic effect of the γ-butyrolactone compound and pharmaceutical composition thereof on Paclitaxel-resistant tumor cells.
FIGS. 9A through to 9D are flow cytometry results illustrating a comparison of the change of Annexin V-FLOUS and PI for untreated group with that of the group treated with 100 nM of Paclitaxel, 30 μg/ml BS-AE, 8 μg/ml BS-8 and 8 μg/ml BS-15 to A549-T12. […]

[7] = system: A549-T12 (taxol resistant A549 subline); assay: MTT cytotoxicity assay, A549-T12; assay type: cell-based, human; conditions: 24 hr
[8] = system: telomerase; assay: Telomerase activity of treated tumor cell lines; assay type: cell-based; conditions: cell lines of human lung cancer, hepatoma, malignant glioblastoma, colorectal carcinoma
Description: A prominent cytotoxic effect was shown when the γ-butyrolactone heterocyclic compound and pharmaceutical composition thereof are added to the Paclitaxel-resistant tumor cell lines, indicating Bupleurum scorzonerifolium indeed contain active components for inhibiting tumor growth. The active components for inhibiting tumor growth refer to the novel compound and pharmaceutical composition thereof having a γ-core and having a Z or E configuration for its carbon 2(5) location at the core.

[9] = system: A549 cells; assay: Cell cycle by flow cytometry, A549; assay type: cell-based, human
From the text: FIGS. 2A through to FIG. 2D illustrate the cell cycle peak change detected using flow cytometry for A549 cells treated with Bupleurum scorzonerifolium extracts: acetone extract (BS-AE), methanol extract (BS-ME) and water extract (BS-WE) isolated according to the extracting method of the invention;
FIG. 4 is a bar chart showing cell cycle changes detected using flow cytometry for A549 cells untreated, treated with BS-AE, isochaihulactone (BS-8), and Paclitaxel;
Furthermore, flow cytometry is employed to observe the changes in cell cycle before and after the addition of different extracts from Bupleurum scorzonerifolium to A549 cells. In FIGS. 2A through to 2D, X-axis represents chromosome numbers (2N, 4N, etc.) of tumor cells in contact with the antibody, Y-axis represents the fluorescent brightness of Fluorescein Isothiocyanate (FITC). […] This effect is most significant for BS-AE.

[10] = system: A549 cells; assay: Annexin V-FLOUS/PI flow cytometry (apoptosis), A549; assay type: cell-based, human; conditions: A549, 20 μM, cultured 48 hours; untreated 3.8%
Description: FIGS. 3A through to FIG. 3C are cytograms showing the extent of cell apoptosis detected using flow cytometry for A 549 cells either untreated, treated with 20 μM of isochalihulactone, or 60 μg/ml of BS-AE and cultured for 48 hrs (wherein X-axis indicates fluorescence intensity of tumor cells bound with Annexin V-FLOUS antibodies; and Y-axis indicates fluorescence intensity of tumor cells bound with PI antibodies);
In the example of using cell line A549, untreated A549 cells, A549 cells treated with 20 μM of Isochaihulactone and A549 cells treated with 60 μg/ml of BS-AE are cultured 48 hours before utilizing flow cytometry to detect the staining results between Annexin V-FLOUS and PI. In FIGS. 3A through to 3C, X-axis represents the fluorescent brightness of tumor cells with antibody Annexin V-FLOUS, and Y-axis represents the fluorescent brightness of tumor cells with antibody PI.

[11] = system: OVCAR-3 (ovarian cancer cell line); assay: MTT cytotoxicity assay, OVCAR-3; assay type: cell-based; conditions: Homo sapiens, OVCAR-3, read-out: IC 50, OVCAR-3; 24 hr
From the text: as §1, §2

[12] = system: A549-T12 cells; assay: MTT assay A549-T12, 24 and 48 hrs (FIG. 10); assay type: cell-based, human; conditions: Paclitaxel-resistant lung cancer cell line
Description: FIGS. 10A through to 10C illustrate results of MTT assays for A549-T12 cells treated with BS-AE, isochaihulactone (BS-8), and isokaerophyllin (BS-15) respectively for 24 hrs and 48 hrs;
Besides, after BS-AE, BS-8, and BS-15 are added to Paclitaxel-resistant lung cancer cell line for 48 hours, viability ratio of tumor cells is reduced as illustrated in FIGS. 10A through to 10C. So, in view of IC50 or ED50, the cytotoxic effect of purified chaihulactone analog on the tumor cells is […] than BS-AE. […] Furthermore, a substantially low dose (1.5 μg/ml) of the compound is all that requires to induce apoptosis for the tumor cells.

[13] = system: HT29 (colon cancer cell line); assay: MTT cytotoxicity assay, HT29; assay type: cell-based, human; conditions: 24 hr
From the text: as §1, §2

[14] = system: J5 (hepatocellular carcinoma); assay: MTT cytotoxicity assay, J5; assay type: cell-based; conditions: Homo sapiens, read-out: IC 50, J 5; heading: IC 50, J 5; 24 hr
From the text: as §1, §2

[15] = system: β-tubulin; assay: Western blot of soluble and particular β-tubulin, A549; assay type: cell-based, human; conditions: A549, FIG. 7
From the text: FIG. 7 is a western blot analysis diagram showing expression of soluble (S) and particular (P) form of β-tubulin in A549 cells either untreated (C), treated with BS-AE, isochaihulactone (BS-8), Paclitaxel, or Vinblastine;
[…] is then used to analyze the change of cytoskeleton of tumor cell lines treated with Bupleurum scorzonerifolium extract. […] Then, a polymerization event is observed before and after the treatment of BS-AE.

[16] = system: MCF 7 (breast cancer cell line); assay: MTT cytotoxicity assay, MCF 7; assay type: cell-based; conditions: Homo sapiens, MCF7, read-out: IC 50, MCF 7; 24 hr
From the text: as §1, §2

[17] = system: WI-38 (embryonic fibroblast cell line); assay: MTT cytotoxicity assay, WI-38; assay type: cell-based; conditions: 24 hr

Molecule: COc1cc(/C=C2\C(=O)OC[C@@H]2Cc2ccc3c(c2)OCO3)cc(OC)c1OC [BS-8, Isochaihulactone]
- IC50 ([1]; Homo sapiens, A549, read-out: IC 50, A549): 8 ± 0.8 µg/mL
- IC50 [2]: 5.5 ± 0.5 µg/mL (≈ 13.8 µM)
- IC50 [3]: 7.5 ± 1 µg/mL (≈ 18.8 µM)
- expression level of tumor suppressor p21 and p53 [4]: significant increase
- effective concentration for inhibiting telomerase activity [5]: about 1.2 μg/mL
- tumor cells coupled to Annexin V [6]: 30.6%
- IC50 ([7]; Homo sapiens, A549, read-out: IC 50, A549-T12, heading: IC 50, A549-T12): 1.7 ± 0.3 µg/mL
- reduction of telomerase activity vs untreated control [8]: 5 times
- cell cycle effect [9]: arrest at G2/M stage
- tumor cells coupled to Annexin V [10]: 32.7%
- IC50 [11]: 7.2 ± 1.2 µg/mL (≈ 18.1 µM)
- viability ratio of tumor cells [12]: reduced
- IC50 ([13]; Homo sapiens, HT-29, read-out: IC 50, HT 29, heading: IC 50, HT 29): 5 ± 0.8 µg/mL
- IC50 [14]: 3.5 ± 0.7 µg/mL (≈ 8.78 µM)
- particular form (polymerized β-microtubule) [15]: increases
- soluble form (non-polymerized β-microtubule) [15]: significantly diminishes
- IC50 [16]: 8 ± 0.8 µg/mL (≈ 20.1 µM)

Molecule: COc1ccc(/C=C2\C(=O)OC[C@@H]2Cc2ccc3c(c2)OCO3)cc1OC [BS-15, Isokaerophyllin]
- tumor cells coupled to Annexin V [6]: 23.1%
- viability ratio of tumor cells [12]: reduced

Molecule: N.N.[Cl][Pt][Cl] [Cisplatin, cisdiammine dichloroplatinum]
- IC 50, A549 [1]: 17200 ± 2700 µg/mL
- IC 50, WI 38 [17]: 21300 ± 4500 µg/mL

Molecule: COc1cc(/C=C2/C(=O)OC[C@@H]2Cc2ccc3c(c2)OCO3)cc(OC)c1OC [Component 3, Chaihulactone]
- expression level of tumor suppressor p21 and p53 [4]: significant increase
- reduction of telomerase activity vs untreated control [8]: 5 times

Molecule: paclitaxel [Taxol, reference compound]
- IC50 ([1]; Taxol in nM, read-out: IC 50, A549): 4 ± 0.6 nM
- IC50 ([7]; Taxol in nM, read-out: IC 50, A549-T12): 20 ± 2.7 nM
- IC50 ([13]; Taxol in nM, read-out: IC 50, HT 29): 3 ± 0.5 nM

From US20060079575A1, “Gamma-butyrolactone compound and pharmaceutical composition thereof” (priority 2003, published 2006)
